Assay results: PubChem BioAssay AID1996
Converted amounts (≈) assume the structure as drawn.

Conditions: buffer; pH 7.4; 200.0 µM

| Structure (SMILES) | solubility kinetic [µg/mL] |
| --- | --- |
| CC(C)(C)NC(=S)Nc1cccc(C(F)(F)F)c1 | 17.1 (≈ 61.9 µM) |
| N#Cc1cc2c(nc1S(=O)(=O)Cc1ccccc1)CCCC2 | 30.7 (≈ 98.3 µM) |
| C[C@H]1O[C@@H](n2cc(F)c(=O)[nH]c2=O)[C@H](O)[C@@H]1O | > 36.9 |
| CSc1ncccc1C(=O)OCc1ccc([N+](=O)[O-])cc1 | 0.9 (≈ 2.96 µM) |
| CCOc1ccc(NC(=O)Cc2c(C(=O)O)n(C)c3ccccc23)cc1 | > 52.9 |
| CC1CCCCC1NC(=O)Cn1cc([N+](=O)[O-])ccc1=O (stereo not drawn) | 29.1 (≈ 99.2 µM) |
| COCCNc1nc(C)c(C(C)=O)s1 | 25.7 (≈ 120 µM) |
| C=CCn1c(O)c(C=NC2CCN(Cc3ccccc3)CC2)c(=O)[nH]c1=O | 54.1 (≈ 147 µM) |
| Cn1c(Nc2ccccc2)cc(=O)n(C)c1=O | > 34.7 |
| C=CCNC(=O)c1ccc([N+](=O)[O-])c(Cl)c1 | > 36.1 |
| N/C(=N\OC(=O)c1cccc(Br)c1)c1ccccn1 | 3 (≈ 9.37 µM) |
| O=C(NCc1ccco1)c1ccc2c(c1)OCCO2 | 37.6 (≈ 145 µM) |
| O=C(c1cccnc1)N1CCN(S(=O)(=O)c2cccs2)CC1 | > 50.6 |
| CC(=O)NC(CC(=O)Nc1ccc(S(=O)(=O)N2CCOCC2)cc1)c1ccccc1 (stereo not drawn) | > 64.7 |
| O=S(=O)(c1ccc(F)cc1)N1CCCC1c1cccnc1 (stereo not drawn) | > 46 |
| COc1ccccc1NC(=O)CC1SC(=N)N(c2ccccc2)C1=O (stereo not drawn) | 5.3 (≈ 14.9 µM) |
| Cc1ccnc(NS(=O)(=O)c2ccc(Cl)nc2)c1 | 26.9 (≈ 94.8 µM) |
| Cc1cccc(NC(=O)c2ccc(NCCO)c([N+](=O)[O-])c2)n1 | 3.4 (≈ 10.7 µM) |
| Cc1ccc(C(=O)O/N=C(\N)Cc2ccc([N+](=O)[O-])cc2)c(Cl)c1 | 3.9 (≈ 11.2 µM) |
| O=C(NCCN1CCOCC1)c1ccc(Cl)nc1 | > 40.5 |
| COCCn1c(-c2cccs2)nc2nc3ccccc3nc21 | 39.7 (≈ 128 µM) |
| O=C(COC(=O)CC1CCCC1)Nc1ccc(Br)cc1F | 19.2 (≈ 53.6 µM) |
| CCC(C)NC(=O)c1cc2cc3ccc(OC)cc3nc2o1 (stereo not drawn) | 30.4 (≈ 102 µM) |
| CCOC(=O)COc1ccc(S(=O)(=O)NC2CC2)cc1 | > 44.9 |

| Structure (SMILES) | solubility kinetic [µg/mL] |
| --- | --- |
| CN1CCCN(C(=O)c2cccc(Cl)c2)CC1 | > 37.9 |
| COc1ccc(OC(=O)c2cnc3n(c2=O)CCS3)cc1 | 35 (≈ 115 µM) |
| COc1ccc(C(=O)COC(=O)c2sc(C)nc2C)cc1F | 36.5 (≈ 113 µM) |
| CC(=O)NCCCc1nc2ccccc2n1Cc1ccccc1F | 48.6 (≈ 149 µM) |
| COc1ccc(CCNC2CC(=O)N(C3CCCCC3)C2=O)cc1OC (stereo not drawn) | 46.4 (≈ 129 µM) |
| CCc1nnc(NC(=O)c2ccc(C)o2)s1 | > 35.6 |
| COCCCNC(=O)CN1C(=O)c2cccc3cccc1c23 | > 44.8 |
| Cc1nnc(SCC(=O)NC2CCCCC2)[nH]c1=O | > 42.4 |
| CC(NC(=O)c1ccco1)C(=O)OCc1cccc(C(F)(F)F)c1 (stereo not drawn) | > 51.2 |
| O=C(CCc1nc(-c2ccccc2)no1)Nc1cccnc1 | > 44.1 |
| CCCNC(=O)CN1C(=O)NC(CCSC)C1=O (stereo not drawn) | > 41 |
| COC(=O)Cn1c2ccc(OC)cc2c2nc(C)sc21 | > 43.6 |
| CC1(C)C(=O)Nc2ccccc2N1C(=O)COC(=O)Cc1ccc(Cl)c(Cl)c1 | 10.1 (≈ 24 µM) |
| COc1ccc(-c2cc(C(=O)Nc3ccc(OC)cc3OC)no2)cc1 | < 0.4 |
| Nc1cc(=O)[nH]c(SCC(=O)Nc2ccc(N3CCCCC3)cc2)n1 | 4.8 (≈ 13.4 µM) |
| NC(=O)c1ccc(NC(=O)COC(=O)CCC2CCCCC2)cc1 | 9.1 (≈ 27.4 µM) |
| COCc1cc(NCc2ccc(Cl)cc2)nc(C)n1 | 34.7 (≈ 125 µM) |
| CCNC(=O)COC(=O)c1[nH]c(C)c(C(=O)OC)c1C | > 42.3 |
| O=C1NC2(CCCCCC2)C(=O)N1Cc1c(F)cccc1Cl | 9.6 (≈ 29.6 µM) |
| Cc1cc(OC(F)F)ccc1NC(=S)NC1CCCC1 | > 45.1 |
| O=C(Nc1cccc2ncccc12)c1cc([N+](=O)[O-])ccc1Cl | 3.2 (≈ 9.76 µM) |
| O=C(CCNC(=O)c1ccccc1)NCCCc1ccccc1 | > 46.6 |
| O=C(CCC(=O)Nc1ccccc1)N/N=C/c1ccncc1 | > 44.4 |
| COc1cc(C(=O)NCCSc2ccccc2)cc(OC)c1OC | 49.9 (≈ 144 µM) |
